Data on eight compounds can be found in patent US20140221485A1, “LIPOPHILIC DOPAMINE DERIVATIVES AND THEIR USE” (NOVALIQ GMBH, priority 2011, published 2014).

Molecules are shown by their SMILES. Entries after “also recorded” stand apart in the source; their conditions may differ.

Assay [1] has as its system Human umbilical vein endothelial cells (HUVEC). As to the kind of experiment: Hypothermic preservation of HUVEC, LDH release. Type of assay: cell-based. The note with it: 100 μM for 1 h, then 24 hrs on ice in UW solution. Here is the method: The hypothermic preservation properties of NOD, A-NOD and N-pivaloyl dopamine (also referred to as NPD, or N-[2-(3,4-dihydroxyphenyl)ethyl]tert-butylamide) were examined. Human umbilical vein endothelial cells (HUVEC) were seeded in 24 well plates and grown until confluence. Hereafter, HUVEC were stimulated for 1 h with 100 μM of NOD, A-NOD or NPD. Cells that were not treated (Md) served as control. The medium was aspirated and the cells were stored for 24 hrs on ice in University of Wisconsin (UW) solution. Cell damage was assessed by measuring lactate dehydrogenase (LDH) release, using a commercially available LDH release assay (Roche). To this end, 100 μl of supernatant was added to 100 μl of assay reaction mixture. The plates were incubated for 30 minutes and the absorption (OD490) was assessed. All experimental conditions were performed in triplicate.
An increase in LDH activity correlates with the amount of dead or damaged cells.
Background: LDH in the medium is a marker of cell lysis.

In assay [2] the test system is ER stress response element (ESRE). The assay is described as follows: ESRE luciferase reporter in transfected endothelial cells. It counts as cell-based. Conditions: stimulated 24 hours. Here is the method: The induction of UPR is mediated by the binding of transcription factors to an ER stress response element (ESRE) featured in the UPR (unfolded protein response) target genes. Endothelial cells were transfected by means of lentiviral transfection using a reporter luciferase construct under the control of ESRE responsive elements. After two days, the transfected cells were stimulated for 24 hours with NOD or dopamine or NPD (N-pivaloyl dopamine, also referred to as N-[2-(3,4-dihydroxyphenyl)ethyl]tert-butylamide), or N-[2-(4-hydroxyphenyl)ethyl]octanamide (referred to as NOT), or medium (control). Chemiluminescence activity of the luciferase was then measured.

Assay [3] relates to HO1 (heme oxygenase-1). As to the kind of experiment: HO1 expression in HUVEC, immunoblot. Type of assay: cell-based, human. Conditions: TNF-α 24 h, 100 μM compound. Here is the method:
(§1) The anti-inflammatory effects of A-NOD and NOD were examined, specifically as to their impact on TNF-α (tumour necrosis factor alpha) mediated VCAM-1 (vascular cell adhesion molecule 1) expression. Human umbilical vein endothelial cells (HUVEC) were cultured until confluence. Hereafter the cells were stimulated for 24 h with TNF-α in the presence or absence of 100 μM NOD or A-NOD. Cells that were not stimulated (M) served as control. Cells were harvested and lysed in Laemli buffer. Hereafter, 20 μL of the lysates were boiled and subjected to SDS-PAGE. The resulting gel was blotted on PVF membranes and the membrane was subsequently incubated overnight with TBS/Tween/5% dry milk powder to block unspecific binding. The upper part of the membrane was probed with an anti-VCAM-1 antibody and the lower part with an anti-HO1 antibody (heme oxygenase-1). After thoroughly washing the membrane was incubated with appropriate HRP conjugates, bands were visualized using chemoluminescence (shown in FIG. 7).
In general terms: In western blotting, separated proteins are transferred to a membrane and probed.

For assay [4], the system named is VCAM-1. The assay is described as follows: TNF-α mediated VCAM-1 expression in HUVEC, immunoblot. Conditions: TNF-α 24 h, 100 μM compound. It counts as cell-based, human. Here is the method: as §1
Assay [5] concerns HYOU1. The assay is described as follows: UPR target gene transcription by qPCR in endothelial cells. Type of assay: cell-based. The note with it: 100 μM, 24 h. Here is the method:
(§2) Endothelial cells were stimulated for 24 h with 100 μM of NOD, NOT, BB, BBNB or BBNO (see Table 1 for compound structures). RNA was isolated from each sample and transcribed into cDNA. Expression of selected UPR target genes was assessed by qPCR.
(Quantitative PCR measures a nucleic acid by following its amplification.)

Assay [6] has as its system DDIT3. Described as above. Type of assay: cell-based. The note with it: 100 μM, 24 h. Here is the method:
as §2

For assay [7], the system named is HSPA5. Described as above. Type of assay: cell-based. Conditions: 100 μM, 24 h. Here is the method: as §2
Assay [8] relates to MANF. Described as above. Type of assay: cell-based. Conditions: 100 μM, 24 h. Here is the method:
as §2

Assay [9] relates to TNF-α. The assay is described as follows: TNF-α activity in renal tissue measured by PCR. It counts as in vivo, rat. Conditions: ARF rats, P<0.01.
In assay [10] the target is TRPV-1-receptors (Homo sapiens, UniProt Q8NER1). Conditions: Greffrath et al. 2011; results in desensitization of the receptor; cited from earlier work.
For assay [11], the system named is Lewis rats. As to the kind of experiment: Effect on body weight in ARF rat model. It counts as in vivo. The note with it: kidneys clamped 45 min, continuous infusion 10 μL/h over 5 days, 40 μmmol/mL. Here is the method: Kidneys of Lewis rats (n=8) were clamped for 45 min to induce acute renal failure (ARF). Afterwards the rats were treated with continuous infusions (10 μL/h over 5 days) of either saline, dopamine or N-octanoyl dopamine (NOD), using an osmotic minipump. The concentration of dopamine and NOD was 40 μmmol/mL. The rats' body weight was monitored for 5 days.

The subject of assay [12] is UPR target genes. As to the kind of experiment: UPR gene transcription of endothelial cells under normoxic and hypoxic conditions (qPCR). Type of assay: cell-based. The note with it: 100 μM, 24 h. Here is the method:
Endothelial cells were cultured for 24 h under normoxic conditions in the presence or absence of 100 μM of NOD or NOT. Cells that were cultured in the absence of either compounds (medium) served as a control. In addition, the cells were cultured under hypoxic conditions for 24 h in the presence or absence of 100 μM NOD or NOT. RNA was isolated and transcribed into cDNA. The expression of a selected set of UPR target genes was assessed by qPCR.

In assay [13] the target is T1, protein disulfide isomerase (PDI) (Homo sapiens, UniProt P07237).
T1 construct: purchased
The assay is described as follows: ProteoStat PDI assay kit, fluorescence-based. Type of assay: biochemical. The note with it: serial dilutions, excitation about 500 nm, emission about 603 nm. Here is the method:
Modulation of PDI activity by NOD was examined by using a fluorescence-based commercially available ProteoStat™ PDI assay kit and according to the kit protocol. The protocol was applied to serial dilutions of NOD, which were measured for inhibition of PDI activity using a fluorescent microplate reader at an excitation setting of about 500 nm and an emission filter of about 603 nm.

Assay [14] relates to Lewis rats. As to the kind of experiment: Effect on renal function (serum creatinine) in ARF rat model. Type of assay: in vivo. Conditions: continuous infusion over 5 days, from day 1 vs saline and day 3 vs dopamine, P<0.05. Here is the method:
Kidneys of Lewis rats (n=8) were clamped for 45 min to induce acute renal failure (ARF). Afterwards the rats were treated with continuous infusions (10 μL/h over 5 days) of either saline, dopamine or N-octanoyl dopamine (NOD), using an osmotic minipump and the same concentrations as in Example 3. The rats' renal function, as measured by the serum creatinine concentration, was monitored for 5 days.

In assay [15] the test system is Lewis rats. As to the kind of experiment: Renal histology after ARF (ED1-cell infiltration, necrotic tubulus cells). Type of assay: in vivo, rat. Conditions: in comparison with saline- and dopamine-treated rats. From the text: The kidneys of the Lewis rats of examples 3 and 4 were harvested. The renal tissue was examined with regard to the infiltration by inflammatory ED1-cells and signs of necrotic tubulus cells.

T1 sequence (P07237 18-508): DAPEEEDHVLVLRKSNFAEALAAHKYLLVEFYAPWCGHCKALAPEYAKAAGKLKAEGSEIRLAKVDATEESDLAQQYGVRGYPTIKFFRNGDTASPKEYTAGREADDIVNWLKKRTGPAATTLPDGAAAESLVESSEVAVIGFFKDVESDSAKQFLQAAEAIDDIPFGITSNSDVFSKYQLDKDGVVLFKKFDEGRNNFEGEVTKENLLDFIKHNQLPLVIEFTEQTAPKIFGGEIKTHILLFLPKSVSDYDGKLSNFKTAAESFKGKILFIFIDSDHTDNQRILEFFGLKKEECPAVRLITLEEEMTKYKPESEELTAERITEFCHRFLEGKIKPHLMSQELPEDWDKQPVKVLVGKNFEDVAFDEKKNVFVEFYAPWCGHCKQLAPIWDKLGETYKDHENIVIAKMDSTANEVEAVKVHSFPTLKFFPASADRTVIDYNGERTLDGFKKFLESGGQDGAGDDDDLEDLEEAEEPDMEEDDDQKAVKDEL
Chain of TRPV-1-receptors (Q8NER1 whole entry, the tested form may be a part): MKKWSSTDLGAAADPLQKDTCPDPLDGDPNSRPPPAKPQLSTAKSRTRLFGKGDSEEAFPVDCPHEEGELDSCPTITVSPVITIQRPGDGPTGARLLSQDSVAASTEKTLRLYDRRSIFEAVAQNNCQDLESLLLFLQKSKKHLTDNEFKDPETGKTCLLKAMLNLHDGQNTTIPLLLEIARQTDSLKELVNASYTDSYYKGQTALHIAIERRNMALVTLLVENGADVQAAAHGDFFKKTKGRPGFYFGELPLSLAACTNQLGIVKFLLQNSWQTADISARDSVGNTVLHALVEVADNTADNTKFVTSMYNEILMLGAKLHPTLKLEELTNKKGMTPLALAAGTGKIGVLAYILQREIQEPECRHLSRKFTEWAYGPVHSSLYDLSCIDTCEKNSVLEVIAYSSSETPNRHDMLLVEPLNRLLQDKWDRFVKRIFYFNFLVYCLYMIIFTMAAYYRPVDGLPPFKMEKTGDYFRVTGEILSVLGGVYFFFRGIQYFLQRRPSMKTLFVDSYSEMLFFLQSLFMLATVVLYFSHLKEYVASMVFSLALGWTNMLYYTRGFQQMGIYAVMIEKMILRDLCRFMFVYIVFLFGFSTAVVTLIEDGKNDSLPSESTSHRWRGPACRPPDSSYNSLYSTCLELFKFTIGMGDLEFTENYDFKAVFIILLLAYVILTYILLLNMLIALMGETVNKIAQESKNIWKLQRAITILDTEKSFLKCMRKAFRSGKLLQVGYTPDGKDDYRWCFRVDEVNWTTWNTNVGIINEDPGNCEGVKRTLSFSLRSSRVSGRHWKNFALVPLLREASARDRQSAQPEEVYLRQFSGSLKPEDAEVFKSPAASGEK

With `CCCCCCCC(=O)NCCc1ccc(OC(C)=O)c(OC(C)=O)c1` [A-NOD, N-(3,4-bisacetoxyphenylethyl)octanamide], the “LDH activity (LDH release, OD490) compared to untreated cell control (Md)” value in assay [1] is listed as “significantly lower”. Besides, in assay [2], the “ESRE-mediated transcription (luciferase chemiluminescence)” value is recorded as “did not significantly induce transcription”. In addition, in assay [3], the anti-HO1 antibody binding entry is “showed anti-HO1 antibody binding”. Moreover, the “anti-VCAM-1 antibody binding (TNF-α mediated VCAM-1 expression)” value in [4] was “in the absence of A-NOD or NOD showed strong anti-VCAM-1 antibody binding in comparison to the cells co-treated with A-NOD or NOD”.

Consider `CCCCNC(=O)c1cc(OC(C)=O)ccc1OC(C)=O` [BBNB], for which the “Relative fold-increase of transcription compared to untreated endothelial cells, 2ΔΔ Ct, HYOU1” value (shortened to “Relative fold-increase … 2ΔΔ Ct, HYOU1”) in assay [5] is 0.84 fold. In assay [6], the “Relative fold-increase of transcription compared to untreated endothelial cells, 2ΔΔ Ct, DDIT3” value (from here on “Relative fold-increase … 2ΔΔ Ct, DDIT3”) worked out at 0.90 fold. Also, the “Relative fold-increase of transcription compared to untreated endothelial cells, 2ΔΔ Ct, HSPA5” value (“Relative fold-increase … 2ΔΔ Ct, HSPA5” for short) in assay [7] is on record as 0.65 fold. In addition, in [8], the “Relative fold-increase of transcription compared to untreated endothelial cells, 2ΔΔ Ct, MANF” value (“Relative fold-increase … 2ΔΔ Ct, MANF” for short) is 0.99 fold.

As for `CCCCCCCCNC(=O)c1cc(OC(C)=O)ccc1OC(C)=O` [BBNO], the “Relative fold-increase … 2ΔΔ Ct, HYOU1” value in [5] is recorded as 4.72 fold. Moreover, in assay [6], the “Relative fold-increase … 2ΔΔ Ct, DDIT3” value is recorded as 3.74 fold. The “Relative fold-increase … 2ΔΔ Ct, HSPA5” value in assay [7] is given as 1.08 fold. Further, the “Relative fold-increase … 2ΔΔ Ct, MANF” value in [8] came out at 0.96 fold.

Regarding `CC(=O)Oc1ccc(OC(C)=O)c(C(=O)O)c1` [BB], the “Relative fold-increase … 2ΔΔ Ct, HYOU1” value in [5] turned out to be 0.90 fold. The “Relative fold-increase … 2ΔΔ Ct, DDIT3” value in assay [6] worked out at 1.01 fold. In addition, the “Relative fold-increase … 2ΔΔ Ct, HSPA5” value in [7] is 0.60 fold. The “Relative fold-increase … 2ΔΔ Ct, MANF” value in [8] is on record as 1.03 fold.

For `CCCCCCCC(=O)NCCc1ccc(O)c(O)c1` [NOD, N-octanoyl dopamine], the “LDH activity (LDH release, OD490) compared to untreated cell control (Md)” value in assay [1] is given as “significantly lower”. In addition, the “TNF-α activity in the renal tissue as measured by PCR” value in assay [9] is reported as “significantly reduced”. Besides, the “ESRE-mediated transcription (luciferase chemiluminescence)” value in assay [2] was “strongly induce ESRE-mediated transcription”. In addition, the “action on TRPV-1-receptors” value in assay [10] is recorded as “agonist”. Further, the “change in body weight before and after the ARF (percent of original body weight)” value in [11] is listed as “no significant change; also recorded: not significantly different from 100%”. Further, the anti-HO1 antibody binding result in assay [3] is given as “showed anti-HO1 antibody binding”. Also, the “anti-VCAM-1 antibody binding (TNF-α mediated VCAM-1 expression)” value in assay [4] is reported as “in the absence of A-NOD or NOD showed strong anti-VCAM-1 antibody binding in comparison to the cells co-treated with A-NOD or NOD”. Further, the “UPR gene transcription under hypoxic conditions” value in assay [12] (hypoxic) is given as “significantly higher levels of transcription”. Moreover, the “UPR gene transcription under normoxic conditions” value in assay [12] (normoxic) is “only NOD induced UPR gene transcription”. For the same compound, the “inhibition of PDI activity” value in [13] is listed as “inhibits PDI in a dose-dependent manner”. For the same compound, the “renal function as measured by serum creatinine concentration” value in assay [14] was “significantly improved renal function”. For the same compound, the “necrotic tissue in kidney” value in assay [15] is recorded as “less necrotic tissue”. Besides, in assay [15] (P<0.01), the “number of inflammatory ED1-cells in renal tissue” value is reported as “significantly reduced number of ED1-cells”. In addition, the “Relative fold-increase … 2ΔΔ Ct, HYOU1” value in [5] turned out to be 5.17 fold. The “Relative fold-increase … 2ΔΔ Ct, DDIT3” value in assay [6] was 37.80 fold. Moreover, the “Relative fold-increase … 2ΔΔ Ct, HSPA5” value in assay [7] was 11.40 fold. Also, in assay [8], the “Relative fold-increase … 2ΔΔ Ct, MANF” value is 4.53 fold.

Consider `CCCCCCCC(=O)NCCc1ccc(O)cc1` [NOT, N-[2-(4-hydroxyphenyl)ethyl]octanamide], for which, in [5], the “Relative fold-increase … 2ΔΔ Ct, HYOU1” value turned out to be 1.26 fold. Also, the “Relative fold-increase … 2ΔΔ Ct, DDIT3” value in assay [6] was 1.12 fold. Also, the “Relative fold-increase … 2ΔΔ Ct, HSPA5” value in [7] turned out to be 0.94 fold. Further, in assay [8], the “Relative fold-increase … 2ΔΔ Ct, MANF” value amounted to 1.08 fold.

For `CC(C)(C)C(=O)NCCc1ccc(O)c(O)c1` [NPD, N-[2-(3,4-dihydroxyphenyl)ethyl]tert-butylamide], the “LDH activity (LDH release, OD490) compared to untreated cell control (Md)” value in assay [1] was “significantly lower”.

`NCCc1ccc(O)c(O)c1` [dopamine, 4-(2-aminoethyl)benzene-1,2-diol]: the “body weight lost due to the ARF” value in assay [11] (osmotic minipump) was about 11%.
